From patent US20220354811A1, “METHODS AND COMPOSITIONS FOR MODULATING MACROPHAGES POLARIZATION” (INSERM (INSTITUT NATIONAL DE LA SANTÉ ET DE LA RECHERCHE …, priority 2019, published 2022)

Assays:
[1] = test system: CSF-1-derived human macrophages; test: IL-4-induced M2 polarization of CSF-1-derived macrophages (flow cytometry CD200R/CD206, CD200R/CD163); assay type: cell-based
Description: FIG. 6. […] Human monocytes were differentiated during 7 days with 100 ng/mL CSF-1. […] The results are expressed as MFI and represent the mean of 3 independent experiments performed in duplicate. **P<0.01 according to a paired student t test (B) Macrophage polarization was evaluated by 3-color flow cytometric analysis. The percentage indicates cells that express both CD206/CD200R or CD163/CD200R. The results represent the mean±SD of 3 independent experiments performed in duplicate. **P<0.01, ***P<0.001 according to a paired student t test. Human monocytes were differentiated during 5 days with 100 ng/mL CSF-1 and then polarized into M2-macrophages (IL-4) for 2 days. […] The results are expressed as percentage of CD200R/CD206 or CD200R/CD163 double positive cells and represent the mean±SD of 3 independent experiments performed in duplicate.
To analyze the macrophagic differentiation of monocytes, the cells were washed with ice-cold phosphate buffered saline (PBS, Life Technologies, 14190169), incubated at 4° C. for 10 min in PBS/bovine serum albumin (BSA 0.5%, Dutscher, 871002) with anti-CD16, anti-CD71 and anti-CD163 or isotype controls (Miltenyi and BD Biosciences, catalog numbers were 130-113-396, 130-097-628 and 551374). Finally, the cells were washed and fixed in 2% paraformaldehyde (EMS, 15710). To perform macrophage polarization, purified monocytes were plated at 0.3×10^6 per mL in RPMI 1640 medium with glutamax-I supplemented with 10% (vol/vol) fetal bovine serum plus CSF-1 for 5+2 days to differentiate into M0 macrophages. 20 ng/mL IL-4 (Miltenyi, 130-094-117) was added after 5 days of differentiation for two days to polarize into M2-macrophages. […] Fluorescence was measured with a MACSQuant® Analyzer (Miltenyi, Paris, France). […] Fluorescence was measured with a MACSQuant® Analyzer (Miltenyi, Paris, France). […] Fluorescence, that indicate the internalization of particles, was measured with a MACSQuant® Analyzers (Miltenyi, France). Trypan blue solution was used to quench the fluorescence from particles that were not internalized. […]

[2] = test system: primary human monocytes; test: Cell death in CSF-1-treated differentiating monocytes (AnnexinV/DAPI flow cytometry); assay type: cell-based
Source text: FIG. 1. […] (A) Macrophagic differentiation of monocytes from 3 different healthy donors was examined by 3-color flow cytometric analysis. The results are expressed as percentage of CD71/CD163 or CD16/CD163 double positive cells and represent the mean±SD of 3 independent experiments performed in duplicate. (B) Cell death from 3 different healthy donors was examined by flow cytometry analysis. The results are expressed as percentage of AnnexinV/DAPI double positive cells and represent the mean±SD of 3 independent experiments performed in duplicate. n.s. denotes not statistically significant according to a paired student t test. *P<0.05, **P<0.01, ***P<0.001 according to a paired student t test (versus d2).
To analyze the macrophagic differentiation of monocytes, the cells were washed with ice-cold phosphate buffered saline (PBS, Life Technologies, 14190169), incubated at 4° C. for 10 min in PBS/bovine serum albumin (BSA 0.5%, Dutscher, 871002) with anti-CD16, anti-CD71 and anti-CD163 or isotype controls (Miltenyi and BD Biosciences, catalog numbers were 130-113-396, 130-097-628 and 551374). Finally, the cells were washed and fixed in 2% paraformaldehyde (EMS, 15710). To perform macrophage polarization, purified monocytes were plated at 0.3×10^6 per mL in RPMI 1640 medium with glutamax-I supplemented with 10% (vol/vol) fetal bovine serum plus CSF-1 for 5+2 days to differentiate into M0 macrophages. 20 ng/mL IL-4 (Miltenyi, 130-094-117) was added after 5 days of differentiation for two days to polarize into M2-macrophages. To analyze the macrophage polarization, cells were detached using PBS/EDTA/BSA, washed with PBS, and incubated at 4° C. for 10 min in PBS/bovine serum albumin with anti-CD200R (Biolegend, 329308), anti-CD206 (Miltenyi, 130-100-034) and anti-CD163 (Miltenyi, 130-097-628) or isotype controls. Finally, the cells were washed and fixed in 2% paraformaldehyde (EMS, 15710). Fluorescence was measured with a MACSQuant® Analyzer (Miltenyi, Paris, France). To analyze the cell death, cells were washed with ice-cold PBS and incubated at 4° C. for 15 min in a specific buffer (10 mM HEPES, 150 mM NaCl, 5 mM KCl, 1 mM MgCl2, 1 mM CaCl2) with AnnexinV-FITC (Miltenyi, 130-097-928) and DAPI (Sigma-Aldrich, D9542). Fluorescence was measured with a MACSQuant® Analyzer (Miltenyi, Paris, France). To analyze the ability of macrophages to phagocyte bacteria, we used Vybrant® Phagocytosis Assay Kit according manufacture's instruction (ThermoFisher, V-6694). […] Fluorescence, that indicate the internalization of particles, was measured with a MACSQuant® Analyzers (Miltenyi, France). Trypan blue solution was used to quench the fluorescence from particles that were not internalized. […]

[3] = test system: bleomycin-induced pulmonary fibrosis; test: Bleomycin-induced lung fibrosis in mice; assay type: in vivo; settings: subcutaneous 18 μg/g body weight twice a day for three weeks; bleomycin-treated mice
Source text: FIG. 7. Pharmacologic and genetic inhibition of caspase-8 prevents bleomycin-induced pulmonary fibrosis. (A) Quantification of Sirius Red labeling intensity. […] Each dot or square is an individual mouse. *P<0.05 according to Mann-Whitney test. (B) Quantification of airspace number/mm2 of parenchymal tissue. Results expressed as fold change in treated compared to control mice as in B. *P<0.05 according to Mann-Whitney test. (C) Quantification of Sirius Red labeling intensity. Results expressed as fold change in treated compared to control mice, C8 KO+bleomycin compared to C8 KO as in B. *P<0.05 according to Mann-Whitney test. (D) Quantification of airspace number/mm2 of parenchymal tissue. Results are expressed as fold change in treated compared to untreated wild-type mice, as in panel E. *P<0.05 according to Mann-Whitney test. (E) Cytokines were measured in broncho-alveolar lavage fluid collected from bleomycin-treated wild-type (wt) and LysM-Cre/Caspase-8 flox/flox (C8 KO) mice treated with bleomycin. Results are expressed as fold-changes compared to untreated mice. *P<0.05, **P<0.01 according to Mann-Whitney test. […]
Procedures were approved by our Institutional Ethical Committee (CEEA 26) and the French Ministry of Research (#9861). […] To quantify airspace number, tissue sections 4-μm stained with Sirius Red were scanned using a NanoZoomer-SQ (Hamamatsu Corporation, Japan). […]

C[C@H](NC(=O)C(=O)Nc1ccccc1C(C)(C)C)C(=O)N[C@@H](CC(=O)O)C(=O)COc1c(F)c(F)cc(F)c1F [Emricasan, (S)-3-((S)-2-(2-((2-(tert-Butyl)phenyl)amino)-2-oxoacetamido)propanamido)-4-oxo-5-(2,3,5,6-tetrafluorophenoxy)pentanoic acid]
M1-like markers ([1]; 5 days CSF-1 then IL-4 2 days): induced M1-like markers
M2-like polarization of M0 macrophages induced by IL4 ([1]; 5 days CSF-1 then IL-4 2 days): dampened
generation of CD200R+/CD206+ and CD200R+/CD163+ double-positive cells ([1]; IL4-polarized macrophages, Emricasan added 16 h before IL-4): inhibited
apoptosis induction in undifferentiated monocytes [2]: did not induce apoptosis
DAPI staining ([2]; higher concentrations (3 μM)): slightly increased DAPI staining
toxicity for primary human monocytes ([2]; low concentrations (up to 2 μM)): not toxic
Annexin V staining ([2]; low concentrations, CSF-1, 48 h): failed to induced significant loss of Annexin V staining
lung fibrosis intensity (Sirius Red staining intensity and air space) [3]: dramatically decreases
